Patent US12264156B2, “Compounds and pharmaceutical compositions thereof for the treatment of diseases” (GALAPAGOS NV, priority 2018, dated 2025)

Legend:
Format in all cases: biochemical
Conditions in all cases: ADP-Glo SIK kinase assay
[1] = molecular target: T1, SIK1 (Homo sapiens, UniProt P57059); experiment: ADP-Glo kinase assay, SIK1
T1 construct: purchased Carna Biosciences 02-131
Method: (§1) The ADP-Glo™ kinase assay is a luminescent technology assay which measures the ADP formed from a kinase reaction. […] In a second step the kinase reactions are terminated and all the remaining ATP is depleted. In a final step the ADP is converted into ATP and this newly synthesized ATP is measured by using a luciferase/luciferin reaction. The generated light is measured using an Envision plate reader, wherein the luminescent signal obtained positively correlates with the kinase activity.
(§2) 1% DMSO and 10 μM staurosporine final concentrations are used as negative and positive controls.
(§3) 2 μL enzyme-substrate mixture is added to the assay plates.
(§4) The reaction is started by adding 2 μL diluted ATP on the assay plates. Plates are centrifuged for a few seconds at 1000 rpm and gently shaken for 2 min followed by an incubation at RT for 120 min.
(§5) The reactions are stopped and the unconsumed ATP is depleted by adding 5 μL ADP-Glo Reagent (Promega, Cat #V912B) to the reaction. The plates are centrifuged for a few seconds at 1000 rpm and incubated at RT for 40 min (ATP depletion).
(§6) The ADP is converted to ATP and luciferase and luciferin is introduced to detect ATP by adding 10 μL Kinase Detection Reagent (Promega, Cat #V913B+V914B) to the reaction. The plates are centrifuged for a few seconds at 1000 rpm and incubated at RT for 30 min (ADP detection).
(§7) Luminescence is measured on an Envision plate reader (PerkinElmer Inc.).

[2] = molecular target: T2, SIK2 (Homo sapiens, UniProt Q9H0K1); experiment: ADP-Glo kinase assay, SIK2
T2 construct: purchased ThermoFisher Scientific PV4792
Method: as §1, §2, §3, §4, §5, §6, §7

[3] = molecular target: T3, SIK3 (Homo sapiens, UniProt Q9Y2K2); experiment: ADP-Glo kinase assay, SIK3
T3 construct: purchased SignalChem S12-11G-100
Method: as §1, §2, §3, §4, §5, §6, §7

T1 sequence (P57059 whole entry): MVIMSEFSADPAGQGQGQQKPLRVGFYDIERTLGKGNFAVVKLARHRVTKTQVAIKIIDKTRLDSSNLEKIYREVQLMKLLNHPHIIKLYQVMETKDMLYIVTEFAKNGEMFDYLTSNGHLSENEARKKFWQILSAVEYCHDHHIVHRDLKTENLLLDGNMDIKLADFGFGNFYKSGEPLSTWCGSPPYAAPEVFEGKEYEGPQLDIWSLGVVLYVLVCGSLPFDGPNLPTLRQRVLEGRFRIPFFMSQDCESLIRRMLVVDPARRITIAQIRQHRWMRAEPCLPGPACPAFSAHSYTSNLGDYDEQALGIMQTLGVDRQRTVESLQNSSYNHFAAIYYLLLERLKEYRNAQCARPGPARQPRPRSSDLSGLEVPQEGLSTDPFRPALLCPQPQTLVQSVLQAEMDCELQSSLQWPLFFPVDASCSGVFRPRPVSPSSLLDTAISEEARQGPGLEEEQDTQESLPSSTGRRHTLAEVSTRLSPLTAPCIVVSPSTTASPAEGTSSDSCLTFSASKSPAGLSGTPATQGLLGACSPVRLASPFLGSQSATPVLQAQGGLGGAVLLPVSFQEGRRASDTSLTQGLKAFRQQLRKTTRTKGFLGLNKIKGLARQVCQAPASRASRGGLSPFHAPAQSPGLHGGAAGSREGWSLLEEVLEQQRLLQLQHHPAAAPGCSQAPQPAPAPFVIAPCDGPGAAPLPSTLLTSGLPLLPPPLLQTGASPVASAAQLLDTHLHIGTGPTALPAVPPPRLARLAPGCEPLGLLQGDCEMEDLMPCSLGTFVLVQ
T3 sequence (Q9Y2K2 whole entry): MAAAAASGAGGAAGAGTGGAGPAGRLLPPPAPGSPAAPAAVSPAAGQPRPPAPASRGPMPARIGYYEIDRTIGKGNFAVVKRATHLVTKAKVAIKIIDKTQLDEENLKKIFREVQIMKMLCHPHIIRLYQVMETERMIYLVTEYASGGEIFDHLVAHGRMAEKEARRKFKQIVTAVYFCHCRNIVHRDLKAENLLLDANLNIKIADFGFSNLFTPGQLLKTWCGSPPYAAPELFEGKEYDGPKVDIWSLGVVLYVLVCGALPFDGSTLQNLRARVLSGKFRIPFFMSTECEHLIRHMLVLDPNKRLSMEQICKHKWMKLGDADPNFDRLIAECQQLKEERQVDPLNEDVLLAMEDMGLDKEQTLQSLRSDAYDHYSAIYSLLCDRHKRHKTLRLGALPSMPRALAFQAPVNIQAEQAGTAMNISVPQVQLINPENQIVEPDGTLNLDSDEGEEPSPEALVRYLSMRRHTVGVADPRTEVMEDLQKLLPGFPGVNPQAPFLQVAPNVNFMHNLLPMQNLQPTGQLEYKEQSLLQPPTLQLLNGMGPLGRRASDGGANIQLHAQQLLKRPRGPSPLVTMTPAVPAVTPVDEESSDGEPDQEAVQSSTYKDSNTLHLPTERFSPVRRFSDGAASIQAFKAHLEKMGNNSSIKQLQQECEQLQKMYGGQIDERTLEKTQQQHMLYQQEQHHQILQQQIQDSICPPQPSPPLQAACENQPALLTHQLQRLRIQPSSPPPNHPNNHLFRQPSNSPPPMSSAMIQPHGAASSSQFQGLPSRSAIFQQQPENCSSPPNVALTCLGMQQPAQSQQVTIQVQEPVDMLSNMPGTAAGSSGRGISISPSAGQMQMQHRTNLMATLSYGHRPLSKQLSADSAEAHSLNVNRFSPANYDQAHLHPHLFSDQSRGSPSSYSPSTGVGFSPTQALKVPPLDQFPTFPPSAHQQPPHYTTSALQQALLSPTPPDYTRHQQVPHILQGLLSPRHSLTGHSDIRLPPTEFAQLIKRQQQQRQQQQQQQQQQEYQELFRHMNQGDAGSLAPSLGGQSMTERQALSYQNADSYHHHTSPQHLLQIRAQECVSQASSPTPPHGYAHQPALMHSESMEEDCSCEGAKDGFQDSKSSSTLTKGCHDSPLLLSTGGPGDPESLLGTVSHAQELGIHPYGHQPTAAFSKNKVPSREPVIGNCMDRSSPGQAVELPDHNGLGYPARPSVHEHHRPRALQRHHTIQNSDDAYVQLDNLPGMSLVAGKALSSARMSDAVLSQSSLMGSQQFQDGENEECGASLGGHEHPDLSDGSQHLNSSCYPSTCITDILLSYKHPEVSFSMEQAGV
T2 sequence (Q9H0K1 whole entry): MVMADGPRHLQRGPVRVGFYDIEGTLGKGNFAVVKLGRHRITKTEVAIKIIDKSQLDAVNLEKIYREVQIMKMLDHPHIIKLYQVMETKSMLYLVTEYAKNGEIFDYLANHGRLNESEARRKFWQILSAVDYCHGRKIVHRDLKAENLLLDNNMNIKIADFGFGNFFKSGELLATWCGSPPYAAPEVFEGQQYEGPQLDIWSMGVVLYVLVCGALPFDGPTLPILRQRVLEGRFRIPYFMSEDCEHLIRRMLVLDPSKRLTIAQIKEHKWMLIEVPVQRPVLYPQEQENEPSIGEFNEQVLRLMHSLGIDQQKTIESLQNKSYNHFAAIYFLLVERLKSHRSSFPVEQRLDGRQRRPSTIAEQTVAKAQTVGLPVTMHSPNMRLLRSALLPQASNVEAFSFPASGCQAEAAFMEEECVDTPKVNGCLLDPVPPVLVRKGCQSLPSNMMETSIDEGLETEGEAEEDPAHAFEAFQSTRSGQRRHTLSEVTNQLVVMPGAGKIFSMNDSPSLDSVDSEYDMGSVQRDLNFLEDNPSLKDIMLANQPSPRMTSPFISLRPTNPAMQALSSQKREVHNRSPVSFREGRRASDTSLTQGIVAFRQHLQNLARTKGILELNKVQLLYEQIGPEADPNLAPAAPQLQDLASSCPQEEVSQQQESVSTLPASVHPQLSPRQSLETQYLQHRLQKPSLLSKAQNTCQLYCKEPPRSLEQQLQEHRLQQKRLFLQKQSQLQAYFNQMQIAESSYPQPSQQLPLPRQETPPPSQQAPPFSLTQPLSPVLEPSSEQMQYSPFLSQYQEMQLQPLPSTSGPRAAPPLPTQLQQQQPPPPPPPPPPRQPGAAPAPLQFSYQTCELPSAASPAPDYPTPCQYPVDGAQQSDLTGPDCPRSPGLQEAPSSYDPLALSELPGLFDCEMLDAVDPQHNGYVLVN

| SMILES | IC50 [1] | IC50 [2] | IC50 [3] |
| --- | --- | --- | --- |
| CCOc1ccn2c(-c3cc4c(c(OC)c3)C(=O)N(CC(F)(F)F)CC4)cnc2c1 [Cpd 264, 6-(7-ethoxyimidazo[1,2-a]pyridin-3-yl)-8-methoxy-2-(2,2,2-trifluoroethyl)-3,4-dihydroisoquinolin-1-one] | 100 to 500 nM | 10 to 100 nM | 0.01 to 10 nM |
| COc1cc(-c2cnc3cc(OCCCN4CCCCC4)ccn23)cc(OC(F)F)c1C(=O)N[C@@H]1CC[C@H]1O (racemic) [compound 359, 2-(difluoromethoxy)-N-[(1R,2R)-2-hydroxycyclobutyl]-6-methoxy-4-[7-[3-(1-piperidyl)propoxy]imidazo[1,2-a]pyridin-3-yl]benzamide/2-(difluoromethoxy)-N-[(1S,2S)-2-hydroxycyclobutyl]-6-methoxy-4-[7-[3-(1-piperidyl)propoxy]imidazo[1,2-a]pyridin-3-yl]benzamide mixture] | 100 to 500 nM | 0.01 to 10 nM | 10 to 100 nM |
| CCC(N)COc1ccn2c(-c3cc(OC)c(C(=O)NC4CC4)c(OC(F)F)c3)cnc2c1 (stereo not drawn) [compound 131, 4-[7-(2-aminobutoxy)imidazo[1,2-a]pyridin-3-yl]-N-cyclopropyl-2-(difluoromethoxy)-6-methoxy-benzamide] | 10 to 100 nM | 0.01 to 10 nM | 0.01 to 10 nM |
| COc1cc(-c2cnc3cc(OCC(C)(C)N(C)C)ccn23)cc(OC(F)F)c1C(=O)NC1CC1 [compound 106, N-cyclopropyl-2-(difluoromethoxy)-4-[7-[2-(dimethylamino)-2-methyl-propoxy]imidazo[1,2-a]pyridin-3-yl]-6-methoxy-benzamide] | > 500 nM | 10 to 100 nM | 10 to 100 nM |
| COc1cc(-c2cnc3cc(OC(C)CN4CCOCC4)ccn23)cc(OC(F)F)c1C(=O)NC1CC1 (stereo not drawn) [compound 12, N-cyclopropyl-2-(difluoromethoxy)-6-methoxy-4-[7-(1-methyl-2-morpholino-ethoxy)imidazo[1,2-a]pyridin-3-yl]benzamide] | > 500 nM | 100 to 500 nM | 10 to 100 nM |
| COc1cc(-c2cnc3cc(OCc4ccn(C)n4)ccn23)cc(OC(F)F)c1C(=O)NC1CC1 [compound 200, N-cyclopropyl-2-(difluoromethoxy)-6-methoxy-4-[7-[(1-methylpyrazol-3-yl)methoxy]imidazo[1,2-a]pyridin-3-yl]benzamide] | 10 to 100 nM | 0.01 to 10 nM | 0.01 to 10 nM |
| COc1cc(-c2cnc3cc(OCc4nccn4C(C)C)ccn23)cc(OC(F)F)c1C(=O)NC1CC1 [compound 175, N-cyclopropyl-2-(difluoromethoxy)-4-[7-[(1-isopropylimidazol-2-yl)methoxy]imidazo[1,2-a]pyridin-3-yl]-6-methoxy-benzamide] | 100 to 500 nM | 0.01 to 10 nM | 0.01 to 10 nM |
| COc1cc(-c2cnc3cc(Oc4ccccn4)ccn23)cc(OC(F)F)c1C(=O)NC1CC1 [compound 145, N-cyclopropyl-2-(difluoromethoxy)-6-methoxy-4-[7-(2-pyridyloxy)imidazo[1,2-a]pyridin-3-yl]benzamide] | 100 to 500 nM | 10 to 100 nM | 10 to 100 nM |
| COc1cc(-c2cnc3cc(OCC4CN(CC(C)(C)O)C4)ccn23)cc(OC(F)F)c1C(=O)NC1CC1 [Cpd 342, N-cyclopropyl-2-(difluoromethoxy)-4-[7-[[1-(2-hydroxy-2-methyl-propyl)azetidin-3-yl]methoxy]imidazo[1,2-a]pyridin-3-yl]-6-methoxy-benzamide] | 10 to 100 nM | 0.01 to 10 nM | 0.01 to 10 nM |
| Cc1cc(-c2cnc3cc(OCCN4CCOCC4)ccn23)cc(OC(F)F)c1C(=O)NC1CC1 [compound 241, N-cyclopropyl-2-(difluoromethoxy)-6-methyl-4-[7-(2-morpholinoethoxy)imidazo[1,2-a]pyridin-3-yl]benzamide] | 100 to 500 nM | 10 to 100 nM | 0.01 to 10 nM |

Next, values leading:

| IC50 [1] | IC50 [2] | IC50 [3] | SMILES |
| --- | --- | --- | --- |
| 10 to 100 nM | 0.01 to 10 nM | 0.01 to 10 nM | COc1cc(-c2cnc3cc(OCC4CC(=O)N(C)C4)ccn23)cc(OC(F)F)c1C(=O)NC1CC1 (stereo not drawn) [compound 26, N-cyclopropyl-2-(difluoromethoxy)-6-methoxy-4-[7-[(1-methyl-5-oxo-pyrrolidin-3-yl)methoxy]imidazo[1,2-a]pyridin-3-yl]benzamide] |
| 10 to 100 nM | 0.01 to 10 nM | 0.01 to 10 nM | COc1cc(-c2cnc3cc(OCCC4CC(F)(F)C4)ccn23)cc(OC(F)F)c1C(=O)NC1CC1 [compound 76, N-cyclopropyl-4-[7-[2-(3,3-difluorocyclobutyl)ethoxy]imidazo[1,2-a]pyridin-3-yl]-2-(difluoromethoxy)-6-methoxy-benzamide] |
| 10 to 100 nM | 0.01 to 10 nM | 0.01 to 10 nM | CCOC(=O)C1CCCN(CCCOc2ccn3c(-c4cc(OC)c(C(=O)NC5CC5)c(OC(F)F)c4)cnc3c2)C1 (stereo not drawn) [compound 395, ethyl 1-[3-[3-[4-(cyclopropylcarbamoyl)-3-(difluoromethoxy)-5-methoxy-phenyl]imidazo[1,2-a]pyridin-7-yl]oxypropyl]piperidine-3-carboxylate] |
| 10 to 100 nM | 0.01 to 10 nM | 0.01 to 10 nM | COc1cc(-c2cnc3cc(OCCCN4CC(C(=O)OC(C)(C)C)C4)ccn23)cc(OC(F)F)c1C(=O)NC1CC1 [compound 391, tert-butyl 1-[3-[3-[4-(cyclopropylcarbamoyl)-3-(difluoromethoxy)-5-methoxy-phenyl]imidazo[1,2-a]pyridin-7-yl]oxypropyl]azetidine-3-carboxylate] |
| 10 to 100 nM | 0.01 to 10 nM | 0.01 to 10 nM | COc1cc(-c2cnc3cc(OCC(F)(F)F)ccn23)cc(OC(F)F)c1C(=O)NC1CC1 [compound 91, N-cyclopropyl-2-(difluoromethoxy)-6-methoxy-4-[7-(2,2,2-trifluoroethoxy)imidazo [1,2-a]pyridin-3-yl]benzamide] |
| 10 to 100 nM | 0.01 to 10 nM | 0.01 to 10 nM | COc1cc(-c2cnc3cc(OCCN(C)CC#N)ccn23)cc(OC(F)F)c1C(=O)NC1CC1 [compound 215, 4-[7-[2-[cyanomethyl(methyl)amino]ethoxy]imidazo[1,2-a]pyridin-3-yl]-N-cyclopropyl-2-(difluoromethoxy)-6-methoxy-benzamide] |
| 10 to 100 nM | 0.01 to 10 nM | 0.01 to 10 nM | COc1cc(-c2cnc3cc(OCCCN4CCn5ccnc5C4)ccn23)cc(OC(F)F)c1C(=O)NC1CC1 [compound 312, N-cyclopropyl-2-(difluoromethoxy)-4-[7-[3-(6,8-dihydro-5H-imidazo[1,2-a]pyrazin-7-yl)propoxy]imidazo[1,2-a]pyridin-3-yl]-6-methoxy-benzamide] |
| 10 to 100 nM | 0.01 to 10 nM | 0.01 to 10 nM | CCOCCOc1ccn2c(-c3cc(OC)c(C(=O)NC4CC4)c(OC(F)F)c3)cnc2c1 [compound 72, N-cyclopropyl-2-(difluoromethoxy)-4-[7-(2-ethoxyethoxy)imidazo [1,2-a]pyridin-3-yl]-6-methoxy-benzamide] |
| 0.01 to 10 nM | 0.01 to 10 nM | 0.01 to 10 nM | COc1cc(-c2cnc3cc(OCC4CCCOC4)ccn23)cc(OC(F)F)c1C(=O)NC1CC1 (stereo not drawn) [compound 59, N-cyclopropyl-2-(difluoromethoxy)-6-methoxy-4-[7-(tetrahydropyran-3-ylmethoxy)imidazo[1,2-a]pyridin-3-yl]benzamide] |
| 10 to 100 nM | 10 to 100 nM | 0.01 to 10 nM | COc1cc(-c2cnc3cc(OC4COC4)ccn23)cc(OC(F)F)c1C(=O)NC1CC1 [compound 152, N-cyclopropyl-2-(difluoromethoxy)-6-methoxy-4-[7-(oxetan-3-yloxy)imidazo[1,2-a]pyridin-3-yl]benzamide] |
| 10 to 100 nM | 0.01 to 10 nM | 0.01 to 10 nM | COc1cc(-c2cnc3cc(OCC4CCCN4)ccn23)cc(OC(F)F)c1C(=O)NC1CC1 (stereo not drawn) [Cpd 154, N-cyclopropyl-2-(difluoromethoxy)-6-methoxy-4-[7-(pyrrolidin-2-ylmethoxy)imidazo[1,2-a]pyridin-3-yl]benzamide] |
| 10 to 100 nM | 0.01 to 10 nM | 0.01 to 10 nM | COc1cc(-c2cnc3cc(OCC(C)(C)C#N)ccn23)cc(OC(F)F)c1C(=O)NC1CC1 [compound 34, 4-[7-(2-cyano-2-methyl-propoxy)imidazo[1,2-a]pyridin-3-yl]-N-cyclopropyl-2-(difluoromethoxy)-6-methoxy-benzamide] |
| 10 to 100 nM | 0.01 to 10 nM | 0.01 to 10 nM | COc1cc(-c2cnc3cc(OCC4CCCO4)ccn23)cc(OC(F)F)c1C(=O)NC1CC1 (stereo not drawn) [compound 93, N-cyclopropyl-2-(difluoromethoxy)-6-methoxy-4-[7-(tetrahydrofuran-2-ylmethoxy)imidazo[1,2-a]pyridin-3-yl]benzamide] |
| 10 to 100 nM | 0.01 to 10 nM | 0.01 to 10 nM | COc1cc(-c2cnc3cc(OCC4CCN(C)C4)ccn23)cc(OC(F)F)c1C(=O)NC1CC1 (stereo not drawn) [compound 144, N-cyclopropyl-2-(difluoromethoxy)-6-methoxy-4-[7-[(1-methylpyrrolidin-3-yl)methoxy]imidazo[1,2-a]pyridin-3-yl]benzamide] |
